Measurements taken from ChEMBL document CHEMBL1926609, “Synthesis of 9-phosphonoalkyl and 9-phosphonoalkoxyalkyl purines: evaluation of their ability to act as inhibitors of Plasmodium falciparum, Plasmodium vivax and human hypoxanthine-guanine-(xanthine) phosphoribosyltransferases” (Bioorg Med Chem, 2012).

Tests used:
[1] = biological target: T1, Hypoxanthine-guanine phosphoribosyltransferase (Homo sapiens, UniProt P00492); assay: Inhibition of human HGPRT
T1 sequence (P00492 whole entry): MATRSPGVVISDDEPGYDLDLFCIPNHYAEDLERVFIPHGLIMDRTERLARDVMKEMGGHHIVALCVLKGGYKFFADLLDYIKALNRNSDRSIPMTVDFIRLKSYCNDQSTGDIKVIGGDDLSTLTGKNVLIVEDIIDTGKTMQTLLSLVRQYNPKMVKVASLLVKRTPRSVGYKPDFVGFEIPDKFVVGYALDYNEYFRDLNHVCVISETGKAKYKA

[2] = Inhibition of Plasmodium falciparum HGXPRT
[3] = Inhibition of Plasmodium vivax HGPRT

Compound	Ki [1] [µM]	Ki [2] [µM]	Ki [3] [µM]
O=c1[nH]cnc2c1ncn2CCCCP(=O)(O)O	> 100	> 100	> 100
Nc1nc2c(ncn2CP(=O)(O)O)c(=O)[nH]1	> 100	> 100	> 100
O=c1[nH]cnc2c1ncn2CCCCCCCP(=O)(O)O	> 100	> 100	> 100
O=P(O)(O)CCCCCn1cnc2c(O)ncnc21	> 100	21	–
Nc1nc2c(ncn2CCCP(=O)(O)O)c(=O)[nH]1	> 100	> 100	> 100
Nc1nc(O)c2ncn(COCCP(=O)(O)O)c2n1	31	5	24
O=c1[nH]cnc2c1ncn2COCCP(=O)(O)O	56	25	30
O=c1[nH]cnc2c1ncn2CCCCCCP(=O)(O)O	77	97	–
O=c1[nH]cnc2c1ncn2CCCP(=O)(O)O	> 100	> 100	> 100
O=c1[nH]cnc2c1ncn2COCCCCP(=O)(O)O	28	29	–
Nc1nc2c(ncn2CCP(=O)(O)O)c(=O)[nH]1	> 100	> 100	> 100

Now those with a lower Ki [1], led by results:

Ki [1] [µM]	Compound	Ki [2] [µM]	Ki [3] [µM]
3	Nc1nc2c(ncn2COCCCP(=O)(O)O)c(=O)[nH]1	6.7	1
21	Nc1nc(O)c2ncn(CCCCP(=O)(O)O)c2n1	> 100	> 100
3.4	O=c1[nH]cnc2c1ncn2CCP(=O)(O)O	2.2	> 100
0.4	Nc1nc(O)c2ncn(COCCCCP(=O)(O)O)c2n1	200	> 100
1.9	O=c1[nH]cnc2c1ncn2CP(=O)(O)O	> 100	> 100
5	Nc1nc(O)c2ncn(CCCCCCCP(=O)(O)O)c2n1	10	–
0.5	Nc1nc2c(ncn2CCCCCCP(=O)(O)O)c(=O)[nH]1	> 100	> 100
0.5	Nc1nc(O)c2ncn(CCCCCP(=O)(O)O)c2n1	2	6
